Source: article PMC7578061, “Potent inhibition of tumour cell proliferation and immunoregulatory function by mitochondria-targeted atovaquone” (Scientific Reports, 2020)

Experiments:
MiaPaCa-2 cells = test: IncuCyte cell proliferation (cell confluence), MiaPaCa-2; assay type: cell-based, human; conditions: for IC50: Homo sapiens, MIA PaCa-2, MiaPaCa-2 cells, confluence as control groups reach 98% confluency, read-out: IC50, inhibition of cell proliferation (cell confluence); for Antiproliferative effect compared with corresponding Mito-ATO analogs: MiaPaCa-2 cells, Figure S3
Experimental: (§1) The following cell lines were obtained from the American Type Culture Collection (Manassas, VA), where they were regularly authenticated: MiaPaCa-2 (ATCC#CRL-1420, human pancreatic cancer), MDA-MB-231 (ATCC#HTB-26, human breast cancer), A549 (ATCC#CCL-185, human lung cancer), LLC (ATCC#CLR-1642, mouse lung cancer). LKR13 mouse lung cancer cells were a gift from Dr. Jonathan M. Kurie (MD Anderson Cancer Center, Houston, TX)[30]. All cell lines were grown at 37 °C in 5% CO2. MiaPaCa-2 and MDA-MB-231 cells were maintained in DMEM medium (Thermo Fisher Scientific, #11965) supplemented with 10% foetal bovine serum. A549, LLC, and LKR13 cells were maintained in RPMI 1640 medium (Thermo Fisher Scientific, #11875), supplemented with 10% foetal bovine serum. All cells were stored in liquid nitrogen and used within 20 passages after thawing.
The IncuCyte Live-Cell Imaging system (IncuCyte Essen Bioscience Inc., Ann Arbor, MI) was used to monitor cell proliferation[11]–[13]. As shown in previous publications[11],[12], this imaging system is probe-free and noninvasive, and enables continuous monitoring of cell confluence over several days. The increase in the percentage of cell confluence was used as a surrogate marker of cell proliferation. In a 96-well plate, cells were plated at 1,000 cells per well in triplicates and left to adhere overnight.

[1] = test system: A549 human lung cancer cells; test: IncuCyte cell proliferation (cell confluence), A549; assay type: cell-based; conditions: read-out: IC50, inhibition of cell proliferation (cell confluence)
Text: (§2) Previous reports provide evidence for enhanced uptake of several mitochondria-targeted cationic agents into cancer cells as compared with non-transformed control cells[11]–[14].
as §1
(§3) The IncuCyte Live-Cell Imaging system (IncuCyte Essen Bioscience Inc., Ann Arbor, MI) was used to monitor cell proliferation[11]–[13]. As shown in previous publications[11],[12], this imaging system is probe-free and noninvasive, and enables continuous monitoring of cell confluence over several days. […]

[2] = test system: MDA-MB-231 human breast cancer cells; test: IncuCyte cell proliferation (cell confluence), MDA-MB-231; assay type: cell-based; conditions: MDA-MB-231 cells, read-out: IC50, inhibition of cell proliferation (cell confluence)
Text: as §2, §1, §3

[3] = test system: LLC mouse lung cancer cells; test: IncuCyte cell proliferation (cell confluence), LLC; assay type: cell-based; conditions: Lewis lung carcinoma, read-out: IC50, inhibition of cell proliferation (cell confluence)
Text: as §2, §1, §3

[4] = test system: LKR13 mouse lung cancer cells; test: IncuCyte cell proliferation (cell confluence), LKR13; assay type: cell-based; conditions: read-out: IC50, inhibition of cell proliferation (cell confluence)
Text: as §2, §1, §3

[5] = target: T1, mitochondrial complex III (Mus musculus, UniProt P00158+Q9CR68); test: Seahorse complex III-driven OCR in LLC cells; assay type: cell-based
T1 construct: carried out on acutely permeabilized cells in the presence of different mitochondrial substrates; endogenous in cells; host or cells: LLC (A11); LKR13 (A13)
Experimental: (§4) Dashed lines represent the fitting curves used for determination of the IC50 values.
(§5) Mitochondrial bioenergetic function was measured in real time using the Seahorse XF 96 Extracellular Flux Analyzer (Agilent, North Billerica, MA)[11]–[13],[22]. The OCR-based assessment of mitochondrial complex activities was carried out on acutely permeabilized cells in the presence of different mitochondrial substrates, i.e., pyruvate/malate, for complex I and duroquinol for complex III[11],[14],[31],[32]. Rot, malonate, and antimycin A (Sigma-Aldrich, St. Louis, MO) were used as specific inhibitors of mitochondrial complexes I, II, and III, respectively. Briefly, cells that were intact after treatments were immediately permeabilized using the Seahorse XF Plasma Membrane Permeabilizer (Agilent). The mitochondrial complex I-driven OCR was assayed in mannitol and sucrose buffer[31] containing 10 mM pyruvate and 1.5 mM malate (substrates for complex I) and 10 mM malonate (which inhibits complex II activities). […] The mitochondrial complex-dependent oxygen consumption (calculated as Rot- or antimycin A-inhibitable OCR equals basal OCR less OCR after Rot or antimycin A injection) was plotted against concentrations to determine the IC50 values.

[6] = target: T1, mitochondrial complex III; test: Seahorse complex III-driven OCR in LKR13 cells; assay type: cell-based
Experimental: as §4, §5

[7] = test system: CD4+ T cells from SMARTA triple reporter mice; test: In vitro differentiation of CD4+ T regulatory cells, flow cytometry; assay type: cell-based, mouse; conditions: six days of culture; for Foxp3+ Treg differentiation and/or survival: varying concentrations; for Teff cell IFNγ production: dose-dependent; for Treg differentiation and/or survival: up to 60 µM
Text: Recent reports indicate that selective targeting and inhibiting of mitochondrial complex III mitigate and reverse immunosuppression by Treg cells, promoting the function of Teff cells[15],[17]. […] After six days, cells were stained to assess viability, phenotype, and function using flow cytometry.
Figure 5 In vitro differentiation of CD4^+ T regulatory cells under varying concentrations of Mito-ATOs and controls. After six days of culture, cells were stained for flow cytometry analysis. (left) Live/dead staining to assess the percentage of live CD4 + T cells within the lymphocyte gate. (middle) Teff cell function is shown as the frequency of IFNγ-YFP positive cells within the live CD4^+ T cells. (right) The percentage of Treg cells is shown as the frequency of FoxP3^+CD25^+ cells within the live CD4^+ T cells. […] I assigned them to Mito10-ATO from the label under the bar charts above. / Panel A contour plots: no measure is printed with the gate percentages. Only the axes CD25 and FoxP3 are printed.
To differentiate CD4^+ T cells into a T regulatory cell phenotype, splenocytes from SMARTA triple-reporter mice were processed and the red blood cell lysed using an ACK (ammonium-chloride-potassium) lysis buffer. The cells were then activated with 1 μg/mL GP61–80 peptide (GenScript, Piscataway, NJ) and 5 ng/mL TGF-β1 (Shenandoah Biotechnology, Inc., Warwick, PA). […] Cells were cultured for six days and split once cells reached confluency; cells were replenished with IL-2 and compound accordingly. After six days in culture, cells were stained to assess the viability and phenotypic analysis via flow cytometry. LIVE/DEAD fixable violet or aqua dead cell stain (Invitrogen, Carlsbad, CA) was used to assess cell viability. The following antibodies were used for flow cytometry staining: PercP anti-mouse CD4 (clone: GK1.5; BioLegend, San Diego, CA), APC/Cy7 anti-mouse CD25 (clone: PC61; BioLegend), and PE anti-mouse FOXP3 (clone: FJK-16S; eBioscience, San Diego, CA). Flow cytometry data were acquired using a BD LSRII (BD Biosciences, CA) flow cytometer and analysed using FlowJo (Treestar, Inc., Ashland, OR).

[8] = target: T2, mitochondrial complex III (Homo sapiens, UniProt P00156+P47985); test: Seahorse complex III-driven OCR in A549 cells; assay type: cell-based; set-up: carried out on acutely permeabilized cells in the presence of different mitochondrial substrates; endogenous in cells; host or cells: A549 (A9)
Experimental: as §4, §5

[9] = target: T2, mitochondrial complex III; test: Seahorse complex III-driven OCR in permeabilized MiaPaCa-2 cells; assay type: cell-based; set-up: carried out on acutely permeabilized cells in the presence of different mitochondrial substrates; endogenous in cells; host or cells: MiaPaCa-2 (A7); conditions: for IC50: MiaPaCa-2 cells treated 24 h, duroquinol, read-out: Complex III IC50 (AA-inhibitable OCR); for Inhibition of complex III-induced oxygen consumption: MiaPaCa-2 cells, 24 h
Experimental: The mitochondrial complex activities were assessed by measuring the oxygen consumption rate (OCR) using the Seahorse technique[6],[11]–[14]. MiaPaCa-2 cells were treated separately with Mito-ATO analogs at different concentrations for 24 h and OCR was measured.
Figure 2 Effects of Mito-ATO analogs on the oxygen consumption induced by mitochondrial complexes I and III. […] MiaPaCa-2 cells were treated with Mito-ATO for 24 h. Relative complex I (1.5 mM malate, 10 mM pyruvate, 10 mM ADP)-driven OCR (left) and relative complex III (0.5 mM duroquinol, 10 mM ADP)-driven OCR (right) were monitored by XF-96 analyser. Either Rot (complex I inhibitor) or antimycin A (AA, complex III inhibitor) was acutely added and OCR assayed immediately. […] Dashed lines represent the fitting curves used for determination of the IC50 values. (n.a., not applicable).
Mitochondrial bioenergetic function was measured in real time using the Seahorse XF 96 Extracellular Flux Analyzer (Agilent, North Billerica, MA)[11]–[13],[22]. The OCR-based assessment of mitochondrial complex activities was carried out on acutely permeabilized cells in the presence of different mitochondrial substrates, i.e., pyruvate/malate, for complex I and duroquinol for complex III[11],[14],[31],[32]. Rot, malonate, and antimycin A (Sigma-Aldrich, St. Louis, MO) were used as specific inhibitors of mitochondrial complexes I, II, and III, respectively. Briefly, cells that were intact after treatments were immediately permeabilized using the Seahorse XF Plasma Membrane Permeabilizer (Agilent). The mitochondrial complex I-driven OCR was assayed in mannitol and sucrose buffer[31] containing 10 mM pyruvate and 1.5 mM malate (substrates for complex I) and 10 mM malonate (which inhibits complex II activities). The mitochondrial complex III-driven OCR was assayed in mannitol and sucrose buffer containing 0.5 mM duroquinol (substrate for complex III) and 1 µM Rot and 10 mM malonate (which inhibit both complex I and II activities). The mitochondrial complex-dependent oxygen consumption (calculated as Rot- or antimycin A-inhibitable OCR equals basal OCR less OCR after Rot or antimycin A injection) was plotted against concentrations to determine the IC50 values.

Which results are given for `O=C1C(OCCCCCCCCCC[P+](c2ccccc2)(c2ccccc2)c2ccccc2)=C([C@H]2CC[C@H](c3ccc(Cl)cc3)CC2)C(=O)c2ccccc21` [Mito10-ATO]?
IC50 (MiaPaCa-2 cells): 220 nM; IC50 [1]: 140 nM; IC50 [2]: 230 nM; IC50 [3]: 460 nM; IC50 [4]: 500 nM; IC50 [5]: 500 nM; IC50 [6]: 2100 nM; Foxp3+ Treg differentiation and/or survival [7]: inhibited; Teff cell IFNγ production [7]: promoted; IC50 [8]: 1000 nM; IC50 [9]: 780 nM

`O=C1C(O)=C([C@H]2CC[C@H](c3ccc(Cl)cc3)CC2)C(=O)c2ccccc21` [ATO, Atovaquone] was tested. Which IC50 (MiaPaCa-2 cells) did it give?
The IC50 was 18000 nM.

What about the IC50 [1] of the same compound?
Its IC50 is 16000 nM.

And the IC50 [2]?
Its IC50 is 18000 nM.

What about the IC50 [3] of the same compound?
The IC50 was 13000 nM.

And the IC50 [4]?
The IC50 was 10000 nM.

What about the “Treg differentiation and/or survival” value [7] of the same compound?
Its value is “did not inhibit”.

Which IC50 (MiaPaCa-2 cells) does the source give for `O=C1C(OCCCCCCCCCCCCCCCC[P+](c2ccccc2)(c2ccccc2)c2ccccc2)=C([C@H]2CC[C@H](c3ccc(Cl)cc3)CC2)C(=O)c2ccccc21` [Mito16-ATO] here?
The IC50 was 3000 nM.

What about the “Inhibition of complex III-induced oxygen consumption” value [9] of the same compound?
Its value is “did not inhibit”.

`CCCCOC1=C([C@H]2CC[C@H](c3ccc(Cl)cc3)CC2)C(=O)c2ccccc2C1=O` [Butyl-ATO] was tested. Which “Antiproliferative effect compared with corresponding Mito-ATO analogs” value (MiaPaCa-2 cells) did it give?
The value was “much less effective”.

What about the “Treg differentiation and/or survival” value [7] of the same compound?
Its value is “did not inhibit”.

With `O=C1C(OCCCCCCCCCCCC[P+](c2ccccc2)(c2ccccc2)c2ccccc2)=C([C@H]2CC[C@H](c3ccc(Cl)cc3)CC2)C(=O)c2ccccc21` [Mito12-ATO] as the compound, how does the “Foxp3+ Treg differentiation and/or survival” value [7] read?
Its value is “did not appreciably inhibit”.

And the “Inhibition of complex III-induced oxygen consumption” value [9]?
Its value is “did not inhibit”.

Which results are given for `CCCCCCCCCCOC1=C([C@H]2CC[C@H](c3ccc(Cl)cc3)CC2)C(=O)c2ccccc2C1=O` [Decyl-ATO]?
Antiproliferative effect compared with corresponding Mito-ATO analogs (MiaPaCa-2 cells): much less effective; Treg differentiation and/or survival [7]: did not inhibit

Which IC50 (MiaPaCa-2 cells) does the source give for `O=C1C(OCCCC[P+](c2ccccc2)(c2ccccc2)c2ccccc2)=C([C@H]2CC[C@H](c3ccc(Cl)cc3)CC2)C(=O)c2ccccc21` [Mito4-ATO] here?
The IC50 was 180 nM.

And the “Foxp3+ Treg differentiation and/or survival” value [7]?
Its value is “inhibited”.

And the “Teff cell IFNγ production” value [7]?
Its value is “promoted”.

And the IC50 [9]?
The IC50 was 580 nM.
